Data as given in patent US20160137639A1, “TRIAZOLE-ISOXAZOLE COMPOUND AND MEDICAL USE THEREOF” (JAPAN TOBACCO INC., priority 2012, published 2016).

Columns and labels:
human RORγ = biological target: T1, human RORγ (Homo sapiens, UniProt P51449); assay: Luciferase reporter gene assay of inhibitory effect against RORγ transcriptional activity (GAL4-hRORγ plasmid in CHO cells); type: cell-based; settings: read-out: LUC EC50 (μM) hRORg
T1 construct: human, NM_005060.3 and from Ser253 to Lys518; expressed in transfected cells; host or cells: CHO cells (transient co-transfection with pG5-Luc reporter)
T1 sequence (P51449 253-518): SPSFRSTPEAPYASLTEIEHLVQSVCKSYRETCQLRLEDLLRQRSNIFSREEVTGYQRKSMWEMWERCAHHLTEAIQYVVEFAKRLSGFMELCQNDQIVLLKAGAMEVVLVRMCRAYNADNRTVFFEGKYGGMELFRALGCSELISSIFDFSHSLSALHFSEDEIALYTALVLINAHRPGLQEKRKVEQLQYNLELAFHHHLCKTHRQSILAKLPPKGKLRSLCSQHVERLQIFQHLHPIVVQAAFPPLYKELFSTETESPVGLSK

mouse RORγ = biological target: T2, mouse RORγ (Mus musculus, UniProt P51450); assay: Luciferase reporter gene assay of inhibitory effect against RORγ transcriptional activity (GAL4-mRORγ plasmid in CHO cells); type: cell-based; settings: read-out: LUC EC50 (μM) mRORg
T2 construct: mouse, NM_011281.2 and from Ile251 to Lys516; expressed in transfected cells; host or cells: CHO cells (transient co-transfection with pG5-Luc reporter)
T2 sequence (P51450 251-516): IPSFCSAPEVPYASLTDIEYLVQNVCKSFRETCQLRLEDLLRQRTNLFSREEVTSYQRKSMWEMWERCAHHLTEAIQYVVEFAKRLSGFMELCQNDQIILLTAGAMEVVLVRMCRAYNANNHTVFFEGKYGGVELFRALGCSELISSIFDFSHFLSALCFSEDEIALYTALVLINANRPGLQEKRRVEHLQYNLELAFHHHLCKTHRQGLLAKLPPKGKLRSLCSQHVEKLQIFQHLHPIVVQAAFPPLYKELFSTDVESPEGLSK
Procedure, shortened: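 CHO cells transiently co-transfected with GAL4-mouse RORγ LBD (Ile251–Lys516) and GAL4-dependent luciferase reporter; eight compound concentrations, 0.1% DMSO, 2 days at 37 °C. Luminescence as %-of-vehicle control; EC50 by curve fit, cytotoxic concentrations excluded.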

## Cc1ccc(NC(=O)C[C@H](CCC(=O)O)c2noc(-c3cc(CCC(C)C)on3)c2C(F)(F)F)c(Cl)c1 [Example E-16]
Human RORγ
  EC50: < 3 µM
Mouse RORγ
  EC50: < 3 µM

## Cc1ccc(NC(=O)C[C@H](CCC(=O)O)c2noc(-c3cc(C4CC(CC(C)(C)C)C4)on3)c2C2CC2)c(Cl)c1 (some centres unmarked) [Example E-17]
Human RORγ
  EC50: < 3 µM
Mouse RORγ
  EC50: < 3 µM

## Cc1ccc(NC(=O)C[C@H](CCC(=O)O)c2noc(-c3ncc(CC(C)C)o3)c2C2CC2)c(Cl)c1 [Example E-18]
Human RORγ
  EC50: < 3 µM
Mouse RORγ
  EC50: < 3 µM

## Cc1ccc(NC(=O)C[C@H](CCC(=O)O)c2noc(-c3cn(CCC(C)(C)C)nc3C(F)(F)F)c2C2CC2)c(F)c1 [Example E-19]
Human RORγ
  EC50: > 3 µM
Mouse RORγ
  EC50: > 3 µM

## Cc1ccc(NC(=O)C[C@H](CCC(=O)O)c2noc(-c3cc(C(F)(F)C(C)C)on3)c2C2CC2)c(Cl)c1 [Example E-20]
Human RORγ
  EC50: < 3 µM
Mouse RORγ
  EC50: < 3 µM

## Cc1ccc(NC(=O)C[C@H](CCCC(=O)O)c2noc(-c3cc(CCC(C)C)on3)c2C2CC2)c(Cl)c1 [Example E-21]
Human RORγ
  EC50: < 3 µM
Mouse RORγ
  EC50: < 3 µM

## Cc1ccc(NC(=O)C[C@H](CCC(=O)O)c2noc(-c3cc(CCC(C)(C)C)on3)c2C2CC2)c(Cl)c1 [Example E-22]
Human RORγ
  EC50: < 3 µM
Mouse RORγ
  EC50: < 3 µM

## Cc1ccc(NC(=O)C[C@H](CCC(=O)O)c2noc(-c3cc(C4(CC(C)C)CC4)on3)c2C2CC2)c(Cl)c1 [Example E-23]
Human RORγ
  EC50: < 3 µM
Mouse RORγ
  EC50: < 3 µM

## Cc1ccc(NC(=O)C[C@H](CCC(=O)O)c2noc(-c3cc(C4CCCC4)on3)c2C2CC2)c(Cl)c1 [Example E-24]
Human RORγ
  EC50: < 3 µM
Mouse RORγ
  EC50: < 3 µM

## Cc1ccc(NC(=O)C[C@H](CCC(=O)O)c2noc(-c3cc(CC(C)C)nn3C)c2C2CC2)c(Cl)c1 [Example E-25]
Human RORγ
  EC50: > 3 µM
Mouse RORγ
  EC50: < 3 µM

## Cc1ccc(NC(=O)C[C@H](CCC(=O)O)c2noc(-c3cc(CC(C)C)n(C)n3)c2C2CC2)c(Cl)c1 [Example E-26]
Human RORγ
  EC50: < 3 µM
Mouse RORγ
  EC50: < 3 µM

## Cc1ccc(NC(=O)C[C@H](CCC(=O)O)c2noc(-c3nc(C)c(CC(C)C)s3)c2C2CC2)c(Cl)c1 [Example E-27]
Human RORγ
  EC50: < 3 µM
Mouse RORγ
  EC50: < 3 µM

## Cc1ccc(NC(=O)C[C@H](CCC(=O)O)c2noc(-c3ccc(CC(C)C)o3)c2C2CC2)c(Cl)c1 [Example E-28]
Human RORγ
  EC50: < 3 µM
Mouse RORγ
  EC50: < 3 µM

## Cc1ccc(NC(=O)C[C@H](CCC(=O)O)c2noc(-c3noc(CC(C)C)c3C)c2C2CC2)c(Cl)c1 [Example E-29]
Human RORγ
  EC50: < 3 µM
Mouse RORγ
  EC50: < 3 µM

## Cc1ccc(NC(=O)C[C@H](CCC(=O)O)c2noc(-c3cc(C4CC(C)(C)C4)on3)c2C2CC2)c(Cl)c1 [Example E-30]
Human RORγ
  EC50: < 3 µM
Mouse RORγ
  EC50: < 3 µM

## Cc1ccc(NC(=O)C[C@H](CCC(=O)O)c2noc(-c3cc(CCC(C)(C)C)on3)c2C2CC2)c(F)c1 [Example E-31]
Human RORγ
  EC50: < 3 µM
Mouse RORγ
  EC50: < 3 µM

## Cc1ccc(NC(=O)C[C@H](CCC(=O)O)c2noc(-c3cc(CCC(C)(C)C)on3)c2C2CC2)c(C)c1 [Example E-32]
Human RORγ
  EC50: < 3 µM
Mouse RORγ
  EC50: < 3 µM

## Cc1ccc(NC(=O)C[C@H](CCC(=O)O)c2noc(-c3cc(C(F)(F)CC(C)C)on3)c2C2CC2)c(Cl)c1 [Example E-33]
Human RORγ
  EC50: < 3 µM
Mouse RORγ
  EC50: < 3 µM

## CC(C)(C)CCc1cc(-c2onc([C@@H](CCC(=O)O)CC(=O)Nc3ccc(F)cc3Cl)c2C2CC2)no1 [Example E-34]
Human RORγ
  EC50: < 3 µM
Mouse RORγ
  EC50: < 3 µM

## Cc1ccc(NC(=O)C[C@H](CCC(=O)O)c2noc(-c3cc(C(F)(F)CC(C)(C)C)on3)c2C2CC2)c(Cl)c1 [Example E-35]
Human RORγ
  EC50: < 3 µM
Mouse RORγ
  EC50: < 3 µM

## Cc1ccc(NC(=O)C[C@H](CCC(=O)O)c2noc(-c3csc(CC(C)C)n3)c2C2CC2)c(Cl)c1 [Example E-36]
Human RORγ
  EC50: > 3 µM
Mouse RORγ
  EC50: < 3 µM

## Cc1cc(F)ccc1NC(=O)C[C@H](CCC(=O)O)c1noc(-c2cc(CCC(C)(C)C)on2)c1C1CC1 [Example E-37]
Human RORγ
  EC50: < 3 µM
Mouse RORγ
  EC50: < 3 µM

## Cc1cc(Cl)ccc1NC(=O)C[C@H](CCC(=O)O)c1noc(-c2cc(CCC(C)(C)C)on2)c1C1CC1 [Example E-38]
Human RORγ
  EC50: < 3 µM
Mouse RORγ
  EC50: < 3 µM

## Cc1ccc(NC(=O)C[C@H](CCC(=O)O)c2noc(-c3cc(C(F)(F)C4CCCC4)on3)c2C2CC2)c(Cl)c1 [Example E-39]
Human RORγ
  EC50: < 3 µM
Mouse RORγ
  EC50: < 3 µM

## Cc1ccc(NC(=O)C[C@H](CCC(=O)O)c2noc(-c3cc(C(F)(F)C(C)(C)C)on3)c2C2CC2)c(Cl)c1 [Example E-40]
Human RORγ
  EC50: < 3 µM
Mouse RORγ
  EC50: < 3 µM

## Cc1ccc(NC(=O)C[C@H](CCC(=O)O)c2noc(-c3cnc(CC(C)C)s3)c2C2CC2)c(Cl)c1 [Example E-41, Sodium (S)-5-(2-chloro-4-methyl-phenylcarbamoyl)-4-[4-cyclopropyl-5-(2-isobutyl-thiazol-5-yl)-isoxazol-3-yl]-pentanoate]
Human RORγ
  EC50: < 3 µM
Mouse RORγ
  EC50: < 3 µM

## Cc1ccc(NC(=O)C[C@H](CCC(=O)O)c2noc(-c3cc(C4(C)CCCC4)on3)c2C2CC2)c(Cl)c1 [Example E-42]
Human RORγ
  EC50: < 3 µM
Mouse RORγ
  EC50: < 3 µM

## Cc1ccc(NC(=O)C[C@H](CCC(=O)O)c2noc(-c3cc(C(C)(C)C)on3)c2C2CC2)c(Cl)c1 [Example E-43]
Human RORγ
  EC50: < 3 µM
Mouse RORγ
  EC50: < 3 µM

## Cc1ccc(NC(=O)C[C@H](CCC(=O)O)c2noc(-c3cc(C4C(C)(C)C4(C)C)on3)c2C2CC2)c(Cl)c1 [Example E-44]
Human RORγ
  EC50: < 3 µM
Mouse RORγ
  EC50: < 3 µM

## Cc1cc(Cl)c(NC(=O)C[C@H](CCC(=O)O)c2noc(-c3cc(CCC(C)(C)C)on3)c2C2CC2)cc1F [Example E-45]
Human RORγ
  EC50: < 3 µM
Mouse RORγ
  EC50: < 3 µM

## Cc1ccc(NC(=O)C[C@H](CCC(=O)O)c2noc(-c3cc(C(F)(F)C(C)(C)C)on3)c2C2CC2)c(F)c1 [Example E-46]
Human RORγ
  EC50: < 3 µM
Mouse RORγ
  EC50: < 3 µM

## Cc1ccc(NC(=O)C[C@H](CCC(=O)O)c2noc(-c3cc(C4CC(F)(F)C4)on3)c2C2CC2)c(Cl)c1 [Example E-47]
Human RORγ
  EC50: < 3 µM
Mouse RORγ
  EC50: < 3 µM

## CC(C)(C)C(F)(F)c1cc(-c2onc([C@@H](CCC(=O)O)CC(=O)Nc3ccc(F)cc3Cl)c2C2CC2)no1 [Example E-48]
Human RORγ
  EC50: < 3 µM
Mouse RORγ
  EC50: < 3 µM

## CC(C)(C)C(F)(F)c1cc(-c2onc([C@@H](CCC(=O)O)CC(=O)Nc3ccc(Cl)cc3F)c2C2CC2)no1 [Example E-49, Sodium (S)-5-(4-chloro-2-fluoro-phenylcarbamoyl)-4-[4′-cyclopropyl-5-(1,1-difluoro-2,2-dimethylpropyl)-[3,5′]biisoxazolyl-3′-yl]-pentanoate]
Human RORγ
  EC50: < 3 µM
Mouse RORγ
  EC50: < 3 µM

## Cc1ccc(NC(=O)C[C@H](CCC(=O)O)c2noc(-c3cc(CCC(F)(F)F)on3)c2C2CC2)c(Cl)c1 [Example E-50]
Human RORγ
  EC50: < 3 µM
Mouse RORγ
  EC50: < 3 µM

## Cc1ccc(NC(=O)C[C@H](CCC(=O)O)c2noc(-c3cc(C(F)(F)C4(C)CC4)on3)c2C2CC2)c(Cl)c1 [Example E-51]
Human RORγ
  EC50: < 3 µM
Mouse RORγ
  EC50: < 3 µM

## Cc1ccc(NC(=O)C[C@H](CCC(=O)O)c2onc(-c3cc(C(F)(F)C(C)(C)C)on3)c2C2CC2)c(Cl)c1 [Example E-52, Sodium (S)-5-(2-chloro-4-methyl-phenylcarbamoyl)-4-[4-cyclopropyl-5′-(1,1-difluoro-2,2-dimethylpropyl)-[3,3′]biisoxazolyl-5′-yl]pentanoate]
Human RORγ
  EC50: < 3 µM
Mouse RORγ
  EC50: < 3 µM

## Cc1ccc(NC(=O)C[C@H](CC(=O)O)c2noc(-c3cc(C(F)(F)C(C)(C)C)on3)c2C2CC2)c(Cl)c1 [Example E-53, Sodium (R)-4-(2-chloro-4-methyl-phenylcarbamoyl)-3-[4′-cyclopropyl-5-(1,1-difluoro-2,2-dimethylpropyl)-[3,5′]biisoxazolyl-3′-yl]-butyrate]
Human RORγ
  EC50: < 3 µM
Mouse RORγ
  EC50: < 3 µM

## Cc1ccc(NC(=O)C[C@H](CCC(=O)O)c2noc(-c3cc(C(C)(C)C(F)(F)F)on3)c2C2CC2)c(Cl)c1 [Example E-54]
Human RORγ
  EC50: < 3 µM
Mouse RORγ
  EC50: < 3 µM

## CC(C)C(F)(F)c1cc(-c2onc([C@@H](CCC(=O)O)CC(=O)Nc3ccc(Cl)cc3F)c2C2CC2)no1 [Example E-55]
Human RORγ
  EC50: < 3 µM
Mouse RORγ
  EC50: < 3 µM

## CC(C)(C)Cc1cc(-c2onc([C@@H](CCC(=O)O)CC(=O)Nc3ccc(Cl)cc3F)c2C2CC2)no1 [Example E-56]
Human RORγ
  EC50: < 3 µM
Mouse RORγ
  EC50: < 3 µM

## CC(C)(C)Cc1cc(-c2onc([C@@H](CCC(=O)O)CC(=O)Nc3ccc(F)cc3Cl)c2C2CC2)no1 [Example E-57]
Human RORγ
  EC50: < 3 µM
Mouse RORγ
  EC50: < 3 µM

## CC(C)(C)Cc1cc(-c2onc([C@@H](CCC(=O)O)CC(=O)Nc3ccc(Cl)cc3Cl)c2C2CC2)no1 [Example E-58, Sodium (S)-4-[4′-cyclopropyl-5-(2,2-dimethyl-propyl)-[3,5′]biisoxazolyl-3′-yl]-5-(2,4-dichloro-phenylcarbamoyl)-pentanoate]
Human RORγ
  EC50: < 3 µM
Mouse RORγ
  EC50: < 3 µM
